Laboratory results as given in patent US6563014B2, “Self-contained system for sustained viral replication” (Albert Einstein College of Medicine of Yeshiva University, priority 1999, dated 2003).

Tested on: HIV-1
Assay: Effect of protease inhibitor treatment on plasma HIV RNA levels in transgenic mice
Format: in vivo
Text: (iv) Quantitation of plasma HIV RNA levels: HIV RNA in the mouse plasma was quantitated by using the Roche AMPLICOR HIV-1 MONITOR™ kits (Roche Diagnostic Systems, Branchburg, N.J.) which can measure virion associated HIV-1 RNA in plasma at concentrations as low as 400 RNA copies/ml as described (Pettoello-Mantovani, M., et al., J. Infect. Dis.1 77:337-346, 1998). After plasma was isolated from the peripheral blood of the JR-CSF TG mice, an internal HIV quantitation standard (QS), a synthetic RNA molecule with primer binding sites identical to the HIV target and an internal probe sequence specific to the QS RNA molecule, was added to 200 μl of each plasma sample. RNA was then extracted from the plasma samples with a Lysis Reagent containing guanidine thiocyanate, precipitated with isopropanol, resuspended in reaction buffer and a 142 base pair sequence in the HIV gag gene was amplified by reverse transcription and PCR using rtth pol and biotinylated primers SK431 and SK462. In order to prevent PCR product contamination, dUTP was incorporated during the PCR reaction and then all of the samples were treated with AmpErase prior to PCR to eliminate carryover of any dUTP-containing PCR product. The biotinylated HIV and QS amplicons were quantitated by detection in separate wells of a microwell plate coated with HIV-specific and QS-specific oligonucleotide probes, respectively, using avidin-horseradish peroxidase conjugate and a calorimetric reaction for horseradish peroxidase. The HIV and QS amplicons were measured in a dynamic range from 400 to 750,000 copies/ml by performing 5-fold serial dilutions of the amplicons in the HIV-specific and QS-specific wells of the microplate (rows A to F and G to H, respectively). The HIV RNA copy number was then calculated from the known input copy number of the QS RNA, the optical densities at 450 nm of the HIV-well and the QS-well that fell within a defined range, and the dilution factors associated with the selected wells.
First, the mean plasma viral levels in the hu-CD4/CCR5/JRCSF TG mice are higher that in the JR-CSF TG mice. […]

[1] = hu-CD4/CCR5/JRCSF TG mice, FIG. 14

## CC(C)c1nc(CN(C)C(=O)N[C@H](C(=O)N[C@@H](Cc2ccccc2)C[C@H](O)[C@H](Cc2ccccc2)NC(=O)OCc2cncs2)C(C)C)cs1 [protease inhibitor, ritonavir]
JR-CSF TG mice
  plasma viremia after treatment with a protease inhibitor: did not decrease and actually went up
[1]
  plasma HIV RNA levels after the protease inhibitor was stopped: went back up
  plasma HIV RNA levels after treatment with the protease inhibitor: markedly decreased
